# “And” between values parts separate entries of the source, which are not always exact repeats. Identical values can stand only once. Like-named read-outs stand apart in the source and are kept apart here.
# Columns and labels:
# [1] = test system: NF54^CTL parasites; test: P. falciparum proliferation assay (72 h, flow cytometry, SYBR Green I/MitoTracker); assay type: cell-based, Plasmodium falciparum
# Procedure: (§1) For the NF54-based lines and Dd2-B2-PfATP4^G358S and its parent, assays were initiated with cultures containing predominantly ring-stage parasites with a parasitaemia of 0.3% and a haematocrit of 1%. All assays using NF54 were performed in culture media containing 10% O + human serum. The duration of the assays was 72 h and the concentration of DMSO was <0.5% (v/v). Serial dilutions of the test compounds were performed using a Tecan D300e digital dispenser, with parasite cultures added manually. Parasite survival was assessed by flow cytometry on an Intellicyt iQue3 (Essen Bioscience), with 1× SYBR Green I (Invitrogen) and 200 nM MitoTracker Deep Red FM (Invitrogen) used to stain the nucleus and the mitochondria in live parasites, respectively. The gating strategy used to quantify parasite survival, performed using FlowJo version 10 (FlowJo LLC.), is illustrated in Supplementary Fig. 9. IC50 and IC90 values were calculated by linear interpolation of the dose-response data.
# [2] = test system: NF54^G358S-2 parasites; test: as above; assay type: cell-based, Plasmodium falciparum
# Procedure: as §1
compound,measurement,setting,value
C[C@H]1[C@@H](O)O[C@@H]2O[C@@]3(C)CC[C@H]4[C@H](C)CC[C@@H]1[C@@]24OO3 [Dihydroartemisinin],FC (IC50),[1]; NF54CTL compared to NF54WT,1.1 fold
same,FC (IC90),[1]; NF54CTL compared to NF54WT,1.2 fold
same,IC90,"[1]; NF54CTL parasites, individual experiments, read-out: IC90 values",3 nM and 2.45 nM and 2.56 nM
same,IC90,"[1]; Plasmodium falciparum, NF54, NF54CTL parasites, individual experiments, read-out: IC90 values",2.88 nM
same,IC90,"[1]; Plasmodium falciparum, NF54, NF54CTL parasites, mean of the experiments, read-out: IC90 values, MEAN",2.7 nM
same,IC50,"[1]; Plasmodium falciparum, NF54, NF54CTL, 10% human serum, read-out: IC50 ± SEM",0.9 ± 0.1 nM
same,IC50,"[1]; Plasmodium falciparum, NF54, read-out: Dihydroartemisinin IC50 values, NF54CTL, MEAN",0.89 nM
same,IC50,"[1]; read-out: Dihydroartemisinin IC50 values, NF54CTL, single experiments",0.98 nM and 0.8 nM and 0.7 nM
same,FC (IC50),[2]; NF54G358S-2 compared to NF54WT,1.1 fold
same,FC (IC90),[2]; NF54G358S-2 compared to NF54WT,1.2 fold
same,IC90,"[2]; NF54G358S-2 parasites, individual experiments, read-out: IC90 values",2.9 nM and 2.51 nM and 2.93 nM
same,IC50,"[2]; Plasmodium falciparum, NF54, NF54G358S-2, 10% human serum, read-out: IC50 ± SEM",0.9 ± 0.1 nM
same,IC90,"[2]; Plasmodium falciparum, NF54, NF54G358S-2 parasites, individual experiments, read-out: IC90 values",2.84 nM
same,IC90,"[2]; Plasmodium falciparum, NF54, NF54G358S-2 parasites, mean of the experiments, read-out: IC90 values, MEAN",2.8 nM
same,IC50,"[2]; Plasmodium falciparum, NF54, read-out: Dihydroartemisinin IC50 values, NF54G358S-2, MEAN",0.91 nM
same,IC50,"[2]; read-out: Dihydroartemisinin IC50 values, NF54G358S-2, single experiments",0.73 nM

# Source: publication PMC9525273 (Nature Communications, 2022)
